The subject of the assay is TEAD1. The experiment in a line: MCF-7 TEAD1-luciferase reporter assay (MCF7-TEAD-Luc). In kind it is cell-based. To be noted: MCF7 cells, overnight; for IC50: Homo sapiens; for TEAD1-Luc MCF7: Max Inhibition: % of DMSO-treated control. The procedure: The ability of compounds to inhibit TEAD-dependent transcription was assessed in the MCF7-TEAD-Luc reporter assay (BPS #60618). Cells were seeded at 10,000 cells in 200 μL per well into white wall, clear bottom 96-well plates (Corning #3610) and incubated at 37° C. for 24 hours, then treated with serial diluted compounds overnight, and luciferase signal was measured using the ONE-Step Luciferase Assay System (BPS #60690) using an EnSight Multimode plate reader (PerkinElmer, model #MLDHH34000000, integration time 100 ms) with Kaleido 3.0. software. For data analysis, dose-dependent curves were plotted as “% inhibition” (% of DMSO-treated control wells), and were fitted by four-parametric model in GraphPad Prism to obtain IC50 values.
Background: Reporter assays use an easily measured gene product as a stand-in for the process of interest.

For orientation: IC50 means the concentration at which inhibition is half-maximal. A lower IC50 goes with inhibition by little substance.

Turning to `C=CC(=O)N1CC[C@](O)(/C=C/c2ccc(C(F)(F)F)cc2)C1` (single isomer, unassigned) [Example 27, (S*,E)-1-(3-hydroxy-3-(4-(trifluoromethyl)styryl)pyrrolidin-1-yl)prop-2-en-1-one], the half-inhibitory concentration (IC50) was 0.1 to 0.5 µM and the “TEAD1-Luc MCF7: Max Inhibition” value is given as “A (A ≥ 75%)”.

Regarding `C=CC(=O)N1CC[C@@](O)(/C=C/c2ccc(C(F)(F)F)cc2)C1` (single isomer, unassigned) [Example 28, (R*,E)-1-(3-hydroxy-3-(4-(trifluoromethyl)styryl)pyrrolidin-1-yl)prop-2-en-1-one], the IC50 lay in the range of 0.01 to 0.1 µM and the “TEAD1-Luc MCF7: Max Inhibition” value is listed as “B (75% > B ≥ 50%)”.

With `C=CC(=O)N1CC[C@@](C)(/C=C/c2ccc(C(F)(F)F)cc2)C1` (single isomer, unassigned) [Example 29, 1-[(3S*)-3-methyl-3-{2-[4-(trifluoromethyl)phenyl]ethenyl}pyrrolidin-1-yl]prop-2-en-1-one], the half-inhibitory concentration (IC50) was 0.01 to 0.1 µM and the “TEAD1-Luc MCF7: Max Inhibition” value is “A (A ≥ 75%)”.

As for `C=CC(=O)N1CC[C@](C)(/C=C/c2ccc(C(F)(F)F)cc2)C1` (single isomer, unassigned) [Example 30, 1-[(3R*)-3-methyl-3-{2-[4-(trifluoromethyl)phenyl]ethenyl}pyrrolidin-1-yl]prop-2-en-1-one], the IC50 lay within 0.01 to 0.1 µM and the “TEAD1-Luc MCF7: Max Inhibition” value was “A (A ≥ 75%)”.

In the case of `C=CC(=O)N1CC(/C=C/c2ccc(C(F)(F)F)cc2)C(C)(C)C1` (single isomer, unassigned) [Example 33], the IC50 is 0.1 to 0.5 µM and the “TEAD1-Luc MCF7: Max Inhibition” value was “A (A ≥ 75%)”.

Regarding `C=CC(=O)N1CC[C@@H](/C=C\c2cccc(C(F)(F)F)c2)C1` (single isomer, unassigned) [Example 41, (S*,Z)-1-(3-(3-(trifluoromethyl)styryl)pyrrolidin-1-yl)prop-2-en-1-one], the IC50 was 0.01 to 0.1 µM and the “TEAD1-Luc MCF7: Max Inhibition” value is reported as “A (A ≥ 75%)”.

Take `C=CC(=O)N1CC[C@H](/C=C\c2cccc(C(F)(F)F)c2)C1` (single isomer, unassigned) [Example 42, (R*,Z)-1-(3-(3-(trifluoromethyl)styryl)pyrrolidin-1-yl)prop-2-en-1-one]: the IC50 was 0.1 to 0.5 µM and the “TEAD1-Luc MCF7: Max Inhibition” value is listed as “A (A ≥ 75%)”.

With `C=CC(=O)N1CC[C@H](/C=C/c2cccc(C(F)(F)F)c2)C1` (single isomer, unassigned) [Example 43, (R*,E)-1-(3-(3-(trifluoromethyl)styryl)pyrrolidin-1-yl)prop-2-en-1-one], the concentration for half-maximal inhibition (IC50) fell in the range of 0.1 to 0.5 µM and the “TEAD1-Luc MCF7: Max Inhibition” value was “B (75% > B ≥ 50%)”.

Take `C=CC(=O)N1CC[C@@H](/C=C/c2cccc(C(F)(F)F)c2)C1` (single isomer, unassigned) [Example 44, (S*,E)-1-(3-(3-(trifluoromethyl)styryl)pyrrolidin-1-yl)prop-2-en-1-one]: the IC50 was in the range of 0.01 to 0.1 µM and the “TEAD1-Luc MCF7: Max Inhibition” value is “A (A ≥ 75%)”.

Consider `C=CC(=O)N1CC[C@H](C#Cc2cccc(C(F)(F)F)c2)C1` (single isomer, unassigned) [Example 56, (R*)-1-(3-((3-(trifluoromethyl)phenyl)ethynyl)pyrrolidin-1-yl)prop-2-en-1-one], for which the concentration for half-maximal inhibition (IC50) is 0.01 to 0.1 µM and the “TEAD1-Luc MCF7: Max Inhibition” value was “A (A ≥ 75%)”.

As to `C=CC(=O)N1CC[C@@H](C#Cc2cccc(C(F)(F)F)c2)C1` (single isomer, unassigned) [Example 57, (S*)-1-(3-((3-(trifluoromethyl)phenyl)ethynyl)pyrrolidin-1-yl)prop-2-en-1-one], the IC50 lay in the range of 0.01 to 0.1 µM and the “TEAD1-Luc MCF7: Max Inhibition” value is given as “A (A ≥ 75%)”.

For `C=CC(=O)N1CC[C@@](C#Cc2ccc(C(F)(F)F)cc2)(OC)C1` (single isomer, unassigned) [Example 58, (S*)-1-(3-methoxy-3-((4-(trifluoromethyl)phenyl)ethynyl)pyrrolidin-1-yl)prop-2-en-1-one], the IC50 is at most 0.01 µM and the “TEAD1-Luc MCF7: Max Inhibition” value is recorded as “B (75% > B ≥ 50%)”.

In the case of `C=CC(=O)N1CC[C@](F)(C#Cc2ccc(C(F)(F)F)cc2)C1` (single isomer, unassigned) [Example 62, (S*)-1-(3-fluoro-3-((4-(trifluoromethyl)phenyl)ethynyl)pyrrolidin-1-yl)prop-2-en-1-one], the 50% inhibitory concentration (IC50) fell in the range of 0.01 to 0.1 µM and the “TEAD1-Luc MCF7: Max Inhibition” value is recorded as “B (75% > B ≥ 50%)”.

Consider `C=CC(=O)N1CC[C@@](F)(C#Cc2ccc(C(F)(F)F)cc2)C1` (single isomer, unassigned) [Example 63, (R*)-1-(3-fluoro-3-((4-(trifluoromethyl)phenyl)ethynyl)pyrrolidin-1-yl)prop-2-en-1-one], for which the IC50 is 0.01 to 0.1 µM and the “TEAD1-Luc MCF7: Max Inhibition” value is “A (A ≥ 75%)”.

For the molecule `C=CC(=O)N1CC[C@](O)(C#Cc2ccc(C(F)(F)F)cc2)C1` (single isomer, unassigned) [Example 64, (S*)-1-(3-hydroxy-3-((4-(trifluoromethyl)phenyl)ethynyl)pyrrolidin-1-yl)prop-2-en-1-one], the IC50 is 0.01 to 0.1 µM and the “TEAD1-Luc MCF7: Max Inhibition” value was “A (A ≥ 75%)”.

For the molecule `C=CC(=O)N1CC[C@@](O)(C#Cc2ccc(C(F)(F)F)cc2)C1` (single isomer, unassigned) [Example 65, (R*)-1-(3-hydroxy-3-((4-(trifluoromethyl)phenyl)ethynyl)pyrrolidin-1-yl)prop-2-en-1-one], the concentration for half-maximal inhibition (IC50) was 0.1 to 0.5 µM and the “TEAD1-Luc MCF7: Max Inhibition” value is listed as “A (A ≥ 75%)”.

With `C=CC(=O)N1CC[C@H](C#Cc2ccc(C(F)(F)F)cc2)C1` (single isomer, unassigned) [Example 66, (R*)-1-(3-((4-(trifluoromethyl)phenyl)ethynyl)pyrrolidin-1-yl)prop-2-en-1-one], the concentration for half-maximal inhibition (IC50) fell in the range of 0.01 to 0.1 µM and the “TEAD1-Luc MCF7: Max Inhibition” value is reported as “A (A ≥ 75%)”.

With `C=C(F)C(=O)N1CC[C@@H](/C=C/c2ccc(C(F)(F)F)cc2)C1` (single isomer, unassigned) [Example 68], the half-maximal inhibitory concentration (IC50) is 0.1 to 0.5 µM and the “TEAD1-Luc MCF7: Max Inhibition” value is recorded as “B (75% > B ≥ 50%)”.

In the case of `C=C(F)C(=O)N1CC[C@H](/C=C/c2ccc(C(F)(F)F)cc2)C1` (single isomer, unassigned) [Example 69], the IC50 was in the range of 0.1 to 0.5 µM and the “TEAD1-Luc MCF7: Max Inhibition” value was “B (75% > B ≥ 50%)”.

With `C=CC(=O)N1C[C@H](Nc2ncccn2)[C@@H](/C=C/c2ccc(C(F)(F)F)cc2)C1` (single isomer, unassigned) [Example 84], the IC50 lay within 0.01 to 0.1 µM and the “TEAD1-Luc MCF7: Max Inhibition” value was “A (A ≥ 75%)”.

Take `C=CC(=O)N1CCC(/C=C/Cc2ccc(C(F)(F)F)cc2)C1` (single isomer, unassigned) [Example 88, (E)-1-(3-(3-(4-(trifluoromethyl)phenyl)prop-1-en-1-yl)pyrrolidin-1-yl)prop-2-en-1-one]: the IC50 was at most 0.01 µM and the “TEAD1-Luc MCF7: Max Inhibition” value was “B (75% > B ≥ 50%)”.

As to `C=CC(=O)N1CCC(/C=C\Cc2ccc(C(F)(F)F)cc2)C1` (single isomer, unassigned) [Example 89, (Z)-1-(3-(3-(4-(trifluoromethyl)phenyl)prop-1-en-1-yl)pyrrolidin-1-yl)prop-2-en-1-one], the IC50 lay within 0.01 to 0.1 µM and the “TEAD1-Luc MCF7: Max Inhibition” value is “A (A ≥ 75%)”.

As to `C=CC(=O)N1CCC(/C=C\C(C)(C)c2ccc(C(F)(F)F)cc2)C1` (single isomer, unassigned) [Example 91, (Z)-1-(3-(3-methyl-3-(4-(trifluoromethyl)phenyl)but-1-en-1-yl)pyrrolidin-1-yl)prop-2-en-1-one], the half-maximal inhibitory concentration (IC50) is over 0.5 µM and the “TEAD1-Luc MCF7: Max Inhibition” value is “B (75% > B ≥ 50%)”.

As to `C=CC(=O)N1CCC(/C=C/C(C)(C)c2ccc(C(F)(F)F)cc2)C1` (single isomer, unassigned) [Example 92, (E)-1-(3-(3-methyl-3-(4-(trifluoromethyl)phenyl)but-1-en-1-yl)pyrrolidin-1-yl)prop-2-en-1-one], the IC50 was over 0.5 µM and the “TEAD1-Luc MCF7: Max Inhibition” value is “B (75% > B ≥ 50%)”.

For `C=CC(=O)N1CC[C@@H](/C=C/Cc2ccc(C(F)(F)F)cc2)C1` (single isomer, unassigned) [Example 93], the IC50 is 0.01 to 0.1 µM and the “TEAD1-Luc MCF7: Max Inhibition” value is recorded as “B (75% > B ≥ 50%)”.

Take `C=CC(=O)N1CC[C@H](/C=C/Cc2ccc(C(F)(F)F)cc2)C1` (single isomer, unassigned) [Example 94]: the half-inhibitory concentration (IC50) fell in the range of 0.01 to 0.1 µM and the “TEAD1-Luc MCF7: Max Inhibition” value is recorded as “B (75% > B ≥ 50%)”.

In the case of `C=CC(=O)N1CCC2(C=C(c3ccc(C(F)(F)F)cc3)CC2)C1` (single isomer, unassigned) [Example 95, 1-(7-(4-(trifluoromethyl)phenyl)-2-azaspiro[4.4]non-6-en-2-yl)prop-2-en-1-one], the concentration for half-maximal inhibition (IC50) is 0.1 to 0.5 µM and the “TEAD1-Luc MCF7: Max Inhibition” value is on record as “B (75% > B ≥ 50%)”.

As to `C=CC(=O)N1CCC2(CC=C(c3ccc(C(F)(F)F)cc3)C2)C1` (single isomer, unassigned) [Example 96, 1-(7-(4-(trifluoromethyl)phenyl)-2-azaspiro[4.4]non-7-en-2-yl) prop-2-en-1-one], the half-maximal inhibitory concentration (IC50) lay within 0.01 to 0.1 µM and the “TEAD1-Luc MCF7: Max Inhibition” value is listed as “B (75% > B ≥ 50%)”.

Take `C=CC(=O)N1CCC2(C=C(c3ccc(C(F)(F)F)cc3)CO2)C1` (single isomer, unassigned) [Example 97, 1-(3-(4-(trifluoromethyl)phenyl)-1-oxa-7-azaspiro[4.4]non-3-en-7-yl)prop-2-en-1-one]: the IC50 was in the range of 0.1 to 0.5 µM and the “TEAD1-Luc MCF7: Max Inhibition” value is reported as “C (50% > C ≥ 2%)”.

For the origin of these results see patent US20260347319A1, “YAP/TAZ-TEAD ONCOPROTEINS INHIBITORS” (BridGene Biosciences, Inc., priority 2022, published 2026).
